Measurements reported in the supplement of paper PMC10307832.

Assays:
Assay in all cases: relative viability (nuclei count vs DMSO), 5 days (fraction); higher = more cells survive
[1] = compound: C[C@@]1(C(=O)Nc2ccc(F)nc2)CCCN1c1nc(Nc2cc(C3CC3)n[nH]2)c2cccn2n1 + CC(C)C[C@H](NC(=O)[C@H](Cc1ccccc1)NC(=O)c1cnccn1)B(O)O [Bortezomib] (partner 0.002 µM)
Procedure, shortened: (§1)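 After 5 days of treatment, lung cancer cells in 1536-well plates were fixed and stained in a single step (final 0.05% Triton X-100, 1% formaldehyde, 1 ug/ml Hoechst) and their nuclei counted on 4× images. Treatment had been applied by pin tool the day after seeding as one drug alone or as a fixed anchor-drug dose with five library-drug doses (not always all listed) in √10 steps. Relative viability is the nuclei count of treated wells divided by that of vehicle wells, and values are medians of duplicate plates.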

[2] = compound: C[C@@]1(C(=O)Nc2ccc(F)nc2)CCCN1c1nc(Nc2cc(C3CC3)n[nH]2)c2cccn2n1 + Cc1cc(Nc2cc(N3CCN(C)CC3)nc(Sc3ccc(NC(=O)C4CC4)cc3)n2)n[nH]1 [Tozasertib] (partner 0.1 µM)
Procedure, shortened: as §1

Motesanib + Dasatinib = compound: CC1(C)CNc2cc(NC(=O)c3cccnc3NCc3ccncc3)ccc21 [Motesanib] + Cc1nc(Nc2ncc(C(=O)Nc3c(C)cccc3Cl)s2)cc(N2CCN(CCO)CC2)n1 [Dasatinib] (partner 0.075 µM)
Procedure, shortened: as §1

[3] = compound: C[C@@]1(C(=O)Nc2ccc(F)nc2)CCCN1c1nc(Nc2cc(C3CC3)n[nH]2)c2cccn2n1 + Nc1nc2[nH]cc(CCc3ccc(C(=O)N[C@@H](CCC(=O)O)C(=O)O)cc3)c2c(=O)[nH]1 [Pemetrexed] (partner 0.2 µM)
Procedure, shortened: as §1

Cell Line | relative viability ([1]; first compound 0.04 µM) | relative viability ([1]; first compound 0.1265 µM) | relative viability ([1]; first compound 0.4 µM) | relative viability ([1]; first compound 1.265 µM) | relative viability ([2]; first compound 0.04 µM) | relative viability ([2]; first compound 0.1265 µM) | relative viability ([2]; first compound 0.4 µM) | relative viability ([2]; first compound 1.265 µM) | relative viability (Motesanib + Dasatinib; first compound 0.01 µM) | relative viability (Motesanib + Dasatinib; first compound 0.03162 µM) | relative viability (Motesanib + Dasatinib; first compound 0.1 µM) | relative viability (Motesanib + Dasatinib; first compound 0.3162 µM) | relative viability (Motesanib + Dasatinib; first compound 1 µM) | relative viability ([3]; first compound 0.04 µM) | relative viability ([3]; first compound 0.1265 µM) | relative viability ([3]; first compound 0.4 µM) | relative viability ([3]; first compound 1.265 µM)
NCI-H727 | 0.763 | 0.385 | 0.339 | 0.338 | 0.525 | 0.355 | 0.352 | 0.379 | 0.39 | 0.241 | 0.404 | 0.448 | 0.34 | – | – | – | –
NCI-H1299 | 1.05 | 0.975 | 1.03 | 1.03 | – | – | – | – | – | – | – | – | – | – | – | – | –
NCI-H1395 | – | – | – | – | 0.783 | 0.741 | 0.74 | 0.61 | 0.425 | 0.476 | 0.42 | 0.443 | 0.417 | 0.89 | 0.411 | 0.879 | 0.868
NCI-H1563 | 0.853 | 0.826 | 0.73 | 0.747 | – | – | – | – | 0.424 | 0.44 | 0.447 | 0.473 | 0.421 | 0.92 | 0.708 | 0.73 | 0.662
NCI-H1623 | – | – | – | – | 0.391 | 0.397 | 0.349 | 0.371 | 0.481 | 0.567 | 0.562 | 0.556 | 0.538 | – | – | – | –
NCI-H1648 | – | – | – | – | 0.449 | – | – | 0.336 | – | – | – | – | – | 0.661 | 0.606 | 0.624 | 0.637
NCI-H1703 | 0.349 | 0.328 | 0.415 | 0.237 | – | – | – | – | – | – | – | – | – | – | – | – | –
NCI-H1792 | 0.868 | 0.825 | 0.651 | 0.506 | – | – | – | – | – | 0.749 | 0.808 | 0.953 | 0.767 | 0.641 | 0.333 | 0.303 | 0.27
NCI-H1793 | – | – | – | – | 0.631 | 0.283 | – | 0.789 | 0.393 | 0.388 | 0.376 | 0.416 | 0.405 | 0.644 | 0.825 | 0.634 | 0.508
NCI-H1944 | – | – | – | – | 0.251 | 0.239 | 0.203 | 0.245 | 0.205 | 0.215 | 0.25 | 0.225 | 0.231 | 0.605 | 0.554 | 0.497 | 0.544
NCI-H2170 | – | – | – | – | 0.671 | 0.791 | 0.636 | 0.559 | 0.533 | 0.507 | 0.463 | 0.511 | 0.57 | 0.278 | 0.236 | 0.267 | 0.251
NCI-H2342 | – | – | – | – | 0.534 | 0.453 | 0.346 | 0.499 | 0.271 | 0.312 | 0.336 | 0.279 | 0.317 | 0.819 | 0.725 | 0.579 | 0.664
SK-MES-1 | – | – | – | – | 0.979 | 0.968 | 0.8 | 0.207 | 0.397 | 0.424 | 0.373 | 0.412 | 0.378 | 0.948 | 0.93 | 0.838 | 0.796
SW 900 | – | – | – | – | 0.525 | 0.551 | 0.464 | 0.29 | 0.545 | 0.714 | 0.858 | 0.611 | 0.461 | 0.439 | 0.492 | 0.476 | 0.467
